{"source": "ChEMBL document CHEMBL1201862", "about": "“PubChem BioAssay data set” (2004)", "experiment_in_all_cases": "NCI tumour cell line growth inhibition, 48 h", "key": {"[1]": {"system": "786-0"}, "[2]": {"system": "A498"}, "[3]": {"system": "A549"}, "[4]": {"system": "ACHN"}, "[5]": {"system": "BT-549"}, "[6]": {"system": "CAKI-1"}, "[7]": {"system": "CCRF-CEM"}, "[8]": {"system": "COLO 205"}, "[9]": {"system": "DU-145"}, "[10]": {"system": "EKVX"}, "[11]": {"system": "HCC 2998"}, "[12]": {"system": "HCT-116"}, "[13]": {"system": "HCT-15"}, "[14]": {"system": "HL-60"}, "[15]": {"system": "HOP-62"}, "[16]": {"system": "HOP-92"}, "[17]": {"system": "HT-29"}, "[18]": {"system": "Hs-578T"}, "[19]": {"system": "IGROV-1"}, "[20]": {"system": "K562"}, "[21]": {"system": "KM12"}, "[22]": {"system": "LOX IMVI"}, "[23]": {"system": "M14"}, "[24]": {"system": "MCF7"}, "[25]": {"system": "MDA-MB-231"}, "[26]": {"system": "MDA-MB-435"}, "[27]": {"system": "MDA-N"}, "[28]": {"system": "MOLT-4"}, "[29]": {"system": "NCI-H226"}, "[30]": {"system": "NCI-H23"}, "[31]": {"system": "NCI-H460"}, "[32]": {"system": "NCI-H522"}, "[33]": {"system": "NCI/ADR-RES"}, "[34]": {"system": "OVCAR-3"}, "[35]": {"system": "OVCAR-4"}, "[36]": {"system": "OVCAR-5"}, "[37]": {"system": "OVCAR-8"}, "[38]": {"system": "PC-3"}, "[39]": {"system": "RPMI-8226"}, "[40]": {"system": "RXF 393"}, "[41]": {"system": "SF-268"}, "[42]": {"system": "SF-295"}, "[43]": {"system": "SK-MEL-28"}, "[44]": {"system": "SK-MEL-2"}, "[45]": {"system": "SK-MEL-5"}, "[46]": {"system": "SK-OV-3"}, "[47]": {"system": "SNB-19"}, "[48]": {"system": "SNB-75"}, "[49]": {"system": "SW-620"}, "[50]": {"system": "TK-10"}, "[51]": {"system": "U-251"}, "[52]": {"system": "UACC-257"}, "[53]": {"system": "UACC-62"}, "[54]": {"system": "UO-31"}, "[55]": {"system": "SF-539"}, "[56]": {"system": "SN12C"}}, "note": "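A five-concentration, 48-hour dose response in 96-well plates underlies each endpoint, interpolated linearly between surrounding concentrations. Here, GI50 denotes the concentration required for 50% inhibition of growth.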 Active and inactive are the calls of the source. Rule as the data show it: active = GI50 up to about 1.1 µM and inactive = higher.", "data": [{"smiles": "COc1cc(NS(C)(=O)=O)ccc1N1Cc2c[nH]c3ccc4nc(C)cc1c4c23", "values": [{"measurement": "GI50", "setting": "[1]", "value": "20.7 µM (inactive)"}, {"measurement": "GI50", "setting": "[2]", "value": "> 100 µM (inactive)"}, {"measurement": "GI50", "setting": "[3]", "value": "62.5 µM (inactive)"}, {"measurement": "GI50", "setting": "[4]", "value": "> 100 µM (inactive)"}, {"measurement": "GI50", "setting": "[5]", "value": "> 100 µM (inactive)"}, {"measurement": "GI50", "setting": "[6]", "value": "26.4 µM (inactive)"}, {"measurement": "GI50", "setting": "[7]", "value": "52.1 µM (inactive)"}, {"measurement": "GI50", "setting": "[8]", "value": "> 100 µM (inactive)"}, {"measurement": "GI50", "setting": "[9]", "value": "> 100 µM (inactive)"}, {"measurement": "GI50", "setting": "[10]", "value": "67.5 µM (inactive)"}, {"measurement": "GI50", "setting": "[11]", "value": "> 100 µM (inactive)"}, {"measurement": "GI50", "setting": "[12]", "value": "62.8 µM (inactive)"}, {"measurement": "GI50", "setting": "[13]", "value": "> 100", "unit": "µM"}, {"measurement": "GI50", "setting": "[14]", "value": "91.4 µM (inactive)"}, {"measurement": "GI50", "setting": "[15]", "value": "25.9 µM (inactive)"}, {"measurement": "GI50", "setting": "[16]", "value": "24.9 µM (inactive)"}, {"measurement": "GI50", "setting": "[17]", "value": "> 100 µM (inactive)"}, {"measurement": "GI50", "setting": "[18]", "value": "40.6 µM (inactive)"}, {"measurement": "GI50", "setting": "[19]", "value": "33.3 µM (inactive)"}, {"measurement": "GI50", "setting": "[20]", "value": "26.5 µM (inactive)"}, {"measurement": "GI50", "setting": "[21]", "value": "> 100 µM (inactive)"}, {"measurement": "GI50", "setting": "[22]", "value": "> 100 µM (inactive)"}, {"measurement": "GI50", "setting": "[23]", "value": "> 100 µM (inactive)"}, {"measurement": "GI50", "setting": "[24]", "value": "52.6 µM (inactive)"}, {"measurement": "GI50", "setting": "[25]", "value": "64 µM (inactive)"}, {"measurement": "GI50", "setting": "[26]", "value": "17.5 µM (inactive)"}, {"measurement": "GI50", "setting": "[27]", "value": "19.6 µM (inactive)"}, {"measurement": "GI50", "setting": "[28]", "value": "48.5 µM (inactive)"}, {"measurement": "GI50", "setting": "[29]", "value": "38.8 µM (inactive)"}, {"measurement": "GI50", "setting": "[30]", "value": "88.9 µM (inactive)"}, {"measurement": "GI50", "setting": "[31]", "value": "86.1 µM (inactive)"}, {"measurement": "GI50", "setting": "[32]", "value": "26.2 µM (inactive)"}, {"measurement": "GI50", "setting": "[33]", "value": "> 100 µM (inactive)"}, {"measurement": "GI50", "setting": "[34]", "value": "31 µM (inactive)"}, {"measurement": "GI50", "setting": "[35]", "value": "49.9 µM (inactive)"}, {"measurement": "GI50", "setting": "[36]", "value": "> 100 µM (inactive)"}, {"measurement": "GI50", "setting": "[37]", "value": "33 µM (inactive)"}, {"measurement": "GI50", "setting": "[38]", "value": "> 100 µM (inactive)"}, {"measurement": "GI50", "setting": "[39]", "value": "31.5 µM (inactive)"}, {"measurement": "GI50", "setting": "[40]", "value": "32 µM (inactive)"}, {"measurement": "GI50", "setting": "[41]", "value": "22.7 µM (inactive)"}, {"measurement": "GI50", "setting": "[42]", "value": "54.8 µM (inactive)"}, {"measurement": "GI50", "setting": "[43]", "value": "35.5 µM (inactive)"}, {"measurement": "GI50", "setting": "[44]", "value": "74 µM (inactive)"}, {"measurement": "GI50", "setting": "[45]", "value": "97.7 µM (inactive)"}, {"measurement": "GI50", "setting": "[46]", "value": "41.6 µM (inactive)"}, {"measurement": "GI50", "setting": "[47]", "value": "18.7 µM (inactive)"}, {"measurement": "GI50", "setting": "[48]", "value": "19.7 µM (inactive)"}, {"measurement": "GI50", "setting": "[49]", "value": "> 100 µM (inactive)"}, {"measurement": "GI50", "setting": "[50]", "value": "> 100 µM (inactive)"}, {"measurement": "GI50", "setting": "[51]", "value": "32.3 µM (inactive)"}, {"measurement": "GI50", "setting": "[52]", "value": "> 100 µM (inactive)"}, {"measurement": "GI50", "setting": "[53]", "value": "72.3 µM (inactive)"}, {"measurement": "GI50", "setting": "[54]", "value": "> 100 µM (inactive)"}]}, {"smiles": "Cc1c(C#N)c2nnn(C)c(=O)n2c1-c1ccccc1", "values": [{"measurement": "GI50", "setting": "[2]", "value": "98.6 µM (inactive)"}, {"measurement": "GI50", "setting": "[3]", "value": "86.3 µM (inactive)"}, {"measurement": "GI50", "setting": "[4]", "value": "> 100 µM (inactive)"}, {"measurement": "GI50", "setting": "[5]", "value": "87.7 µM (inactive)"}, {"measurement": "GI50", "setting": "[6]", "value": "> 100 µM (inactive)"}, {"measurement": "GI50", "setting": "[7]", "value": "64.1 µM (inactive)"}, {"measurement": "GI50", "setting": "[10]", "value": "56 µM (inactive)"}, {"measurement": "GI50", "setting": "[11]", "value": "> 100 µM (inactive)"}, {"measurement": "GI50", "setting": "[13]", "value": "> 100", "unit": "µM"}, {"measurement": "GI50", "setting": "[14]", "value": "30.8 µM (inactive)"}, {"measurement": "GI50", "setting": "[15]", "value": "> 100 µM (inactive)"}, {"measurement": "GI50", "setting": "[16]", "value": "> 100 µM (inactive)"}, {"measurement": "GI50", "setting": "[21]", "value": "57.1 µM (inactive)"}, {"measurement": "GI50", "setting": "[23]", "value": "> 100 µM (inactive)"}, {"measurement": "GI50", "setting": "[24]", "value": "71 µM (inactive)"}, {"measurement": "GI50", "setting": "[25]", "value": "> 100 µM (inactive)"}, {"measurement": "GI50", "setting": "[26]", "value": "> 100 µM (inactive)"}, {"measurement": "GI50", "setting": "[27]", "value": "> 100 µM (inactive)"}, {"measurement": "GI50", "setting": "[29]", "value": "62.1 µM (inactive)"}, {"measurement": "GI50", "setting": "[30]", "value": "59.3 µM (inactive)"}, {"measurement": "GI50", "setting": "[31]", "value": "> 100 µM (inactive)"}, {"measurement": "GI50", "setting": "[33]", "value": "17.5 µM (inactive)"}, {"measurement": "GI50", "setting": "[34]", "value": "> 100 µM (inactive)"}, {"measurement": "GI50", "setting": "[35]", "value": "> 100 µM (inactive)"}, {"measurement": "GI50", "setting": "[36]", "value": "> 100 µM (inactive)"}, {"measurement": "GI50", "setting": "[37]", "value": "48.2 µM (inactive)"}, {"measurement": "GI50", "setting": "[38]", "value": "54.5 µM (inactive)"}, {"measurement": "GI50", "setting": "[39]", "value": "84.9 µM (inactive)"}, {"measurement": "GI50", "setting": "[40]", "value": "> 100 µM (inactive)"}, {"measurement": "GI50", "setting": "[41]", "value": "> 100 µM (inactive)"}, {"measurement": "GI50", "setting": "[42]", "value": "51.6 µM (inactive)"}, {"measurement": "GI50", "setting": "[55]", "value": "> 100 µM (inactive)"}, {"measurement": "GI50", "setting": "[43]", "value": "> 100 µM (inactive)"}, {"measurement": "GI50", "setting": "[44]", "value": "> 100 µM (inactive)"}, {"measurement": "GI50", "setting": "[46]", "value": "> 100 µM (inactive)"}, {"measurement": "GI50", "setting": "[56]", "value": "> 100 µM (inactive)"}, {"measurement": "GI50", "setting": "[47]", "value": "> 100 µM (inactive)"}, {"measurement": "GI50", "setting": "[48]", "value": "23.6 µM (inactive)"}, {"measurement": "GI50", "setting": "[49]", "value": "> 100 µM (inactive)"}, {"measurement": "GI50", "setting": "[50]", "value": "> 100 µM (inactive)"}, {"measurement": "GI50", "setting": "[51]", "value": "> 100 µM (inactive)"}, {"measurement": "GI50", "setting": "[52]", "value": "34.4 µM (inactive)"}, {"measurement": "GI50", "setting": "[53]", "value": "> 100 µM (inactive)"}, {"measurement": "GI50", "setting": "[54]", "value": "95.5 µM (inactive)"}]}]}
